Assay results from patent US9944602B2, “Piperidinone herbicides” (E. I. DU PONT DE NEMOURS AND COMPANY, priority 2014, dated 2018).

Legend:
Assay type in all cases: in vivo
[1] = tested on: wheat (winter wheat, Triticum aestivum); experiment: Test C postemergence wheat; details: Table C, scale 0 to 100
Source text: (§1) Seeds of plant species selected from blackgrass (Alopecurus myosuroides), ryegrass, Italian (Italian ryegrass, Lolium multiflorum), wheat (winter wheat, Triticum aestivum), galium (catchweed bedstraw, Galium aparine), corn (Zea mays), crabgrass, large (large crabgrass, Digitaria sanguinalis), foxtail, giant (giant foxtail, Setaria faberii), johnsongrass (Sorghum halepense), lambsquarters (Chenopodium album), morningglory (Ipomoea coccinea), yellow (yellow nutsedge, Cyperus esculentus), pigweed (Amaranthus retroflexus), ragweed (common ragweed, Ambrosia elatior), soybean (Glycine max), barnyardgrass (Echinochloa crus-galli), oilseed rape (Brassica napus), waterhemp (common waterhemp, Amaranthus rudis), and velvetleaf (Abutilon theophrasti) were planted into a blend of loam soil and sand and treated preemergence with test chemicals formulated in a non-phytotoxic solvent mixture which included a surfactant. At the same time, plants selected from these crop and weed species and also chickweed (common chickweed, Stellaria media), kochia (Kochia scoparia), and oat, wild (wild oat, Avena fatua) were planted in pots containing Sunshine Redi-Earth® planting medium comprising spaghnum peat moss, vermiculite, starter nutrients and dolomitic limestone and treated with postemergence applications of test chemicals formulated in the same manner. Plants ranged in height from 2 to 18 cm (1- to 4-leaf stage) for postemergence treatments. Treated plants and controls were maintained in a greenhouse for 13 to 15 days, after which time all species were compared to controls and visually evaluated. Plant response ratings, summarized in Table C, are based on a scale of 0 to 100 where 0 is no effect and 100 is complete control. A dash (-) response means no test result.

[2] = tested on: crabgrass, large (large crabgrass, Digitaria sanguinalis); experiment: Test C postemergence crabgrass, large; details: Table C, scale 0 to 100
Source text: as §1

[3] = tested on: oilseed rape (Brassica napus); experiment: Test C postemergence oilseed rape; details: Table C, scale 0 to 100
Source text: as §1

[4] = tested on: waterhemp (common waterhemp, Amaranthus rudis); experiment: Test C postemergence waterhemp; details: Table C, scale 0 to 100
Source text: as §1

[5] = tested on: kochia (Kochia scoparia); experiment: Test C postemergence kochia; details: Table C, scale 0 to 100
Source text: as §1

[6] = tested on: oat, wild (wild oat, Avena fatua); experiment: Test C postemergence oat, wild; details: Table C, scale 0 to 100
Source text: as §1

[7] = tested on: lambsquarters (Chenopodium album); experiment: Test C preemergence lambsquarters; details: Table C, scale 0 to 100
Source text: as §1

[8] = tested on: barnyardgrass (Echinochloa crus-galli); experiment: Test C preemergence barnyardgrass; details: Table C, scale 0 to 100
Source text: as §1

[9] = tested on: velvetleaf (Abutilon theophrasti); experiment: Test C preemergence velvetleaf; details: Table C, scale 0 to 100
Source text: as §1

[10] = tested on: crabgrass, large (large crabgrass, Digitaria sanguinalis); experiment: Test A preemergence crabgrass, large; details: 0 to 100 scale; for Crabgrass, Large plant response rating: 125 g ai/ha, 0 no effect, 100 complete control; for Plant response rating, Crabgrass, Large: 500 g ai/ha, 0 is no effect, 100 is complete control
Source text: Seeds of plant species selected from barnyardgrass (Echinochloa crus-galli), kochia (Kochia scoparia), ragweed (common ragweed, Ambrosia elatior), ryegrass, Italian (Italian ryegrass, Lolium multiflorum), crabgrass, large (large crabgrass, Digitaria sanguinalis), foxtail, giant (giant foxtail, Setaria faberii), morningglory (Ipomoea spp.), pigweed (Amaranthus retroflexus), velvetleaf (Abutilon theophrasti), wheat (Triticum aestivum), and corn (Zea mays) were planted into a blend of loam soil and sand and treated preemergence with a directed soil spray using test chemicals formulated in a non-phytotoxic solvent mixture which included a surfactant.
At the same time, plants selected from these crop and weed species and also blackgrass (Alopecurus myosuroides), and galium (catchweed bedstraw, Galium aparine) were planted in pots containing the same blend of loam soil and sand and treated with postemergence applications of test chemicals formulated in the same manner. Plants ranged in height from 2 to 10 cm and were in the one- to two-leaf stage for the postemergence treatment. Treated plants and untreated controls were maintained in a greenhouse for approximately 10 d, after which time all treated plants were compared to untreated controls and visually evaluated for injury. Plant response ratings, summarized in Table A, are based on a 0 to 100 scale where 0 is no effect and 100 is complete control. A dash (-) response means no test result.

Row | SMILES | Plant response rating ([1]; 31 g ai/ha) | Plant response rating ([1]; 62 g ai/ha) | Plant response rating ([1]; 125 g ai/ha) | Plant response rating ([1]; 250 g ai/ha) | Plant response rating ([2]; 31 g ai/ha) | Plant response rating ([2]; 62 g ai/ha) | Plant response rating ([2]; 125 g ai/ha) | Plant response rating ([2]; 250 g ai/ha) | Plant response rating ([3]; 31 g ai/ha) | Plant response rating ([3]; 62 g ai/ha) | Plant response rating ([3]; 125 g ai/ha) | Plant response rating ([3]; 250 g ai/ha) | Plant response rating ([4]; 31 g ai/ha) | Plant response rating ([4]; 62 g ai/ha) | Plant response rating ([4]; 125 g ai/ha) | Plant response rating ([4]; 250 g ai/ha) | Plant response rating ([5]; 31 g ai/ha) | Plant response rating ([5]; 62 g ai/ha) | Plant response rating ([5]; 125 g ai/ha) | Plant response rating ([5]; 250 g ai/ha) | also measured
1 | O=C1NCCC(c2cccc(C(F)(F)F)c2)C1C(=O)Nc1ccccc1Cl (racemic) [Compound 17] | 0 | 0 | 0 | 0 | 5 | 20 | 20 | 55 | 0 | 0 | 0 | 0 | 0 | 0 | 0 | 0 | 0 | 0 | 0 | 0 | Plant response rating ([6]; 31 g ai/ha): 0; Plant response rating ([6]; 62 g ai/ha): 0; Plant response rating ([6]; 125 g ai/ha): 0; Plant response rating ([6]; 250 g ai/ha): 0
2 | O=C1NCCC(c2cccc(C(F)(F)F)c2)C1C(=O)Nc1ccc(F)c(F)c1F (racemic) [Compound 28] | – | – | – | – | – | – | – | – | – | – | – | – | – | – | – | – | – | – | – | – | Plant response rating ([7]; 31 g ai/ha): 5; Plant response rating ([7]; 62 g ai/ha): 5; Plant response rating ([7]; 125 g ai/ha): 5; Plant response rating ([7]; 250 g ai/ha): 15; Plant response rating ([8]; 31 g ai/ha): 60; Plant response rating ([8]; 62 g ai/ha): 75; Plant response rating ([8]; 125 g ai/ha): 90; Plant response rating ([8]; 250 g ai/ha): 95; Plant response rating ([9]; 31 g ai/ha): 10; Plant response rating ([9]; 62 g ai/ha): 0; Plant response rating ([9]; 125 g ai/ha): 20; Plant response rating ([9]; 250 g ai/ha): 20
3 | O=C1NCCC(c2cccc(C(F)(F)F)c2)C1C(=O)Nc1cccc(F)c1F (stereo not shown) [Compound 9, N-(2,3-difluorophenyl)-2-oxo-4-[3-(trifluoromethyl)phenyl]-3-piperidinecarboxamide] | 0 | 0 | 0 | 0 | 0 | 35 | 75 | 75 | 0 | 0 | 0 | 5 | 0 | 5 | 0 | 5 | 0 | 0 | 0 | 0 | Crabgrass, Large plant response rating [10]: 90; Plant response rating, Crabgrass, Large [10]: 100; Plant response rating ([7]; 31 g ai/ha): 0; Plant response rating ([7]; 62 g ai/ha): 0; Plant response rating ([7]; 125 g ai/ha): 0; Plant response rating ([7]; 250 g ai/ha): 0; Plant response rating ([8]; 31 g ai/ha): 75; Plant response rating ([8]; 62 g ai/ha): 90; Plant response rating ([8]; 125 g ai/ha): 95; Plant response rating ([8]; 250 g ai/ha): 95; Plant response rating ([9]; 31 g ai/ha): 0; Plant response rating ([9]; 62 g ai/ha): 5; Plant response rating ([9]; 125 g ai/ha): 0; Plant response rating ([9]; 250 g ai/ha): 0; Plant response rating ([6]; 31 g ai/ha): 0; Plant response rating ([6]; 62 g ai/ha): 0; Plant response rating ([6]; 125 g ai/ha): 0; Plant response rating ([6]; 250 g ai/ha): 0
4 | O=C1NCCC(c2cccc(C(F)(F)F)c2)C1C(=O)Nc1ccccc1C(F)(F)F (stereo not shown) [Compound 10, 2-oxo-N-[2-(trifluoromethyl)phenyl)-4-[3-(trifluoromethyl)phenyl]-3-piperidinecarboxamide] | – | – | – | – | – | – | – | – | – | – | – | – | – | – | – | – | – | – | – | – | Crabgrass, Large plant response rating [10]: 90; Plant response rating, Crabgrass, Large [10]: 100
